Data from patent publication US20240400547A1, “2,6-PIPERIDINEDIONE COMPOUND AND APPLICATION THEREOF” (MEDSHINE DISCOVERY INC., priority 2021, published 2024).
Structures can show the parent of a compound that is named as a salt.

Tests used:
IRAK4 = target: T1, IRAK4 (Homo sapiens, UniProt Q9NWZ3); experiment: Target protein degradation in K562 IRAK4-HiBiT cells (Nano-Glo HiBiT); assay type: cell-based; conditions: 16 to 18 hours; for Dmax: read-out: Maximum degradation rate
T1 construct: expressed in transfected cells; host or cells: K562 IRAK4-HiBiT cells
T1 sequence (Q9NWZ3 1-460): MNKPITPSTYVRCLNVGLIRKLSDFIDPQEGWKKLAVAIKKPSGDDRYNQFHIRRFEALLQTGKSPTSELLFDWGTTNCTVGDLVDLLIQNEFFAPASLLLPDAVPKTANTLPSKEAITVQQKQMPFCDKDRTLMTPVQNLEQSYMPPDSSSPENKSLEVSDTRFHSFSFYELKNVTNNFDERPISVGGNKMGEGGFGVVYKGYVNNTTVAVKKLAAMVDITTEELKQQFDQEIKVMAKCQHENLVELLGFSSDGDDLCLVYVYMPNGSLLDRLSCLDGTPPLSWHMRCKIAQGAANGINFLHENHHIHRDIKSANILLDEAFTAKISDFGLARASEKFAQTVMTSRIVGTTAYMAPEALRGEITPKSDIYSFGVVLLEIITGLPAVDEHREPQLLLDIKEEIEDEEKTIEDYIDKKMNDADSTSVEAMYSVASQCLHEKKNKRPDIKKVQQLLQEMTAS
Description: Experimental objective: The experiment aims to evaluate the degradation effect of the test compounds on the target protein IRAK4 in K562 IRAK4-HiBiT cells.
• Cells: K562 IRAK4-HiBiT cells • Culture medium: RPMI 1640+10% fetal bovine serum+2 mM glutamine+1 mM sodium pyruvate+penicillin/streptomycin. • Positive control: 1000 nM; negative control: 0.1% DMSO.
• (1). The powder of the compound to be tested was dissolved in DMSO to a storage concentration of 10 mM. A total of 9 μL of the 10 mM of the compound to be tested was manually pipetted into the 1st and 13th columns of the LDV plate using a pipettor; • (2). A volume of 6 μL of DMSO was added to columns 2-12 and 14-24 using a Multidrop Combi; • (3). A 3-fold dilution of the test compounds (3 μL+6 μL) was performed using Bravo, for columns 1-11 and 13-23; • (4). According to the plate layout, 25 nL of compound solution (columns 1-24 of the LDV plate) was transferred to the experimental plate using Echo; • (5) 25 nL of the 1 mM positive control solution was transferred to the assay plate as a 100% degradation control (i.e. LC, HPE), and 25 nL of DMSO was transferred to the assay plate as a 0% control (i.e. HC, ZPE).
• (1) The culture medium was discarded, and the cells were washed once with DPBS, digested with trypsin, counted, and prepared into a cell suspension of […]. • (2) Using the MultiDrop Combi at a medium speed, 25 μL/well of the cell suspension was added to the experimental plate containing the test compounds; • (3) The experimental plate containing cells was returned to the incubator and cultured for 16 to 18 hours at 37° C. and 5% CO2.
• (1). Using the MultiDrop Combi at a high speed, 25 μL/well of the assay reagent (NanoGlo lytic solution+substrate+LgBit protein) was added to the assay plate, followed by shaking for 10 minutes; • (2) The plate was centrifuged at 2000 rpm for 1 minute to remove any bubbles; • (3) Readings were obtained by using an Envision, US Luminescence reader.
To calculate the degradation rate (DR) of the test compounds, the following formula is used: IR (%)=(RLU vehicle control−RLU compound)/(RLU vehicle control−RLU positive control)×100%. The solvent control refers to the blank control. The degradation rates of compounds at different concentrations were calculated in Excel, and then XLFit software was used to plot inhibition curves and calculate relevant parameters, including minimum degradation rate, maximum degradation rate, and DC50.

[1] = Pharmacokinetic evaluation in mice; assay type: in vivo, C57BL/6N or CD-1 male mice; conditions: intragastric administration 10 mg/kg, experimental operation A, fasted overnight
Text: In this study, C57BL/6N or CD-1 male mice were selected as test animals, and LC/MS/MS method was used to quantify plasma concentrations of the test compound intravenously injected or gavage to mice at different time points, so as to evaluate the pharmacokinetic profile of the compounds of the present disclosure in mice.
C57BL/6N mice (male, 20 to 30 g, 7 to 10 weeks old, Beijing VitalRiver) or CD-1 mice (male, 20 to 35 g, 7 to 10 weeks old, Beijing VitalRiver).
• The test compounds, either as clear or suspension solutions, were administered intravenously through the tail vein to C57BL/6N mice or CD-1 mice (either fasted overnight or fed) (vehicle: 10% DMSO/10% solutol/80% H2O or 5% DMSO/10% solutol/85% H2O), or intragastrically administered to C57BL/6N mice or CD-1 mice (either fasted overnight or fed). For intravenous injection, blood 50 μL was collected via the cheek vein puncture at 0 h (pre-administration), 0.083, 0.25, 0.5, 1, 2, 4, 6, 8, and 24 h after administration, and placed in an anticoagulant tube added with heparin sodium. The mixture was thoroughly vortexed and mixed, and centrifuged at 6000 g for 3 minutes at 2-8° C. For oral administration, blood was collected via the cheek vein puncture at 0 h (pre-administration), 0.083, 0.25, 0.5, 1, 2, 4, 6, 8, and 24 h after administration, and placed in an anticoagulant tube added with heparin sodium. The mixture was thoroughly vortexed and mixed, and centrifuged at 6000 g for 3 minutes at 2-8° C. Plasma concentrations were determined by LC-MS/MS method, and relevant pharmacokinetic parameters were calculated using Phoenix WinNonlin8.2.0 pharmacokinetic software with non-compartmental model linear-log trapezoidal method.
• The test compounds, as clear solutions, were administered intravenously through the tail vein to CD-1 mice (fasted overnight) (vehicle: 10% DMSO/10% solutol/80% H2O or 5% DMSO/10% solutol/85% H2O), or intragastrically administered to CD-1 mice (fasted overnight). For intravenous injection, blood was collected via the saphenous vein puncture at 0 h (pre-administration), 0.083, 0.25, 0.5, 1, 2, 4, 8, and 24 h after administration, and placed in a EDTA-K2 anticoagulant tube. The mixture was thoroughly vortexed and mixed, and centrifuged at 3200 g for 10 minutes at 4° C. to obtain plasma. For oral administration, blood was collected via the saphenous vein puncture at 0 h (pre-administration), 0.083, 0.25, 0.5, 1, 2, 4, 8, and 24 h after administration, and placed in a EDTA-K2 anticoagulant tube. The mixture was thoroughly vortexed and mixed, and centrifuged at 3200 g for 10 minutes at 4° C. to obtain plasma. Plasma concentrations were determined by LC-MS/MS method, and relevant pharmacokinetic parameters were calculated using Phoenix WinNonlin 6.3 pharmacokinetic software with non-compartmental model linear-log trapezoidal method.

IKZF1 = target: T2, IKZF1 (Homo sapiens, UniProt Q13422+Q96SW2); experiment: In Cell Western of IKZF1 protein expression level in MM.1S cells; assay type: cell-based; conditions: IKZF1, MM.1S cells, 24 hours; for Dmax: MM1.S, read-out: Maximum degradation rate Dmax
T2 construct: host or cells: MM.1S cells
Description: Experimental objective: The experiment aims to assess the degradation effect of the test compounds on IKZF1 and 1KZF3 proteins in MM.1S cells by evaluating the impact of the test compounds on the expression levels of IKZF1 and IZKZF3 proteins in MM.1S cells.
• Cell lines: MMN.1 S cell (sourced from ATCC; Cat. No CRL-2974) • Negative control: 0.100 DMSO.
• 1) Log phase MM.1 S cells were plated in a 96-well plate at 1.2×10^5 cells per well and cultured overnight; • 2) The next day, compounds were added with a starting concentration of 300 nM, diluted threefold across three replicate wells for 10 concentration gradients (including DMSO), and the cells were incubated for 24 hours in an incubator; • 3) The cells were centrifuged, and the supernatant was carefully removed. 150 μL of 4% paraformaldehyde fixative was added along the wall of the wells, avoiding contact with the bottom cells, and the cells were incubated at room temperature for 20 minutes; • 4) Lysis buffer was prepared by mixing 0.5 mL of 10% Triton X-100 with 49.5 mL of PBS until homogenous; • 5) 200 μL of lysis buffer was added along the well walls, again avoiding the bottom cells, and incubated on a shaker at room temperature for 5 minutes; • 6) The wells were washed four times; • 7) 150 μL of Licor […] Blocking Buffer was added along the well walls, avoiding the bottom cells, and the cells were incubated on a shaker at room temperature for 1.5 hours; • 8) Ikaros (D6N9Y) Rabbit mAb, Aiolos (D1C1E) Rabbit mAb and GAPDH mouse mAb (proteintech, 60004-1-Ig) were diluted at a 1:100 ratio using antibody dilution buffer; • 9) 50 μL of mixed antibody was added to each well with three replicate wells, and the cells were incubated overnight on a shaker at 4° C.; • 10) PBST (PBS with 0.1% Tween 20) was prepared; • 11) The primary antibodies were removed, and 200 μL of PBST was added along the well walls, avoiding the bottom cells, and the cells were incubated on a shaker at room temperature for 5 minutes; • 12) The wells were washed four times; • 13) Secondary antibody dilution buffer was prepared by adding Tween 20 to Licor […] Blocking Buffer to a final concentration of 0.2%; • 14) Fluorescent secondary antibodies were diluted in the dark at a 1:800 ratio. To 400 μL of secondary antibody dilution solution, 0.5 μL of each IRDye 800CW and IRDye 680CW (corresponding to the primary antibodies) was added. • 15) 50 μL of the diluted fluorescent secondary antibodies was added to each well and the cells were incubated on a shaker at room temperature in the dark for 60 minutes; • 16) The secondary antibodies were removed, and 200 μL of PBST was added along the well walls, avoiding the bottom cells, and the cells were incubated on a shaker at room temperature in the dark for 5 minutes; • 17) The wells were washed four times; immediately after washing, the Odyssey Gel Imaging System was used for detection at dual wavelengths of 700 nm and 800 nm.
Using GraphPad Prism 6 software, inhibition rate data was entered to fit the curve and calculate the DC50 value.

T2 sequence (Q13422 whole entry): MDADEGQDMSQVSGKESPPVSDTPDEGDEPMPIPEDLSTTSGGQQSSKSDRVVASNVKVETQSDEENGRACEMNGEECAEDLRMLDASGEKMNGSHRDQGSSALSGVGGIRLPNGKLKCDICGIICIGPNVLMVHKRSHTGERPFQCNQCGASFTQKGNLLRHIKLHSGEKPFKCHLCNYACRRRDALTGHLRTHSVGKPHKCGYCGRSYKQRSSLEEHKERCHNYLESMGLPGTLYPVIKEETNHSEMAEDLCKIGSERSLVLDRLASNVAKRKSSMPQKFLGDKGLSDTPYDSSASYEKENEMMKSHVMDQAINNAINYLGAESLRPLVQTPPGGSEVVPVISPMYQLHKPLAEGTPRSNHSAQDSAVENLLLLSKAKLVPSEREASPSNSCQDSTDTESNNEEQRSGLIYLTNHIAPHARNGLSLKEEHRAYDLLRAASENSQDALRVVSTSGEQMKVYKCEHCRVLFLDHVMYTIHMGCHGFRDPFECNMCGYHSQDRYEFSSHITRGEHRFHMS
T2 sequence (Q96SW2 whole entry): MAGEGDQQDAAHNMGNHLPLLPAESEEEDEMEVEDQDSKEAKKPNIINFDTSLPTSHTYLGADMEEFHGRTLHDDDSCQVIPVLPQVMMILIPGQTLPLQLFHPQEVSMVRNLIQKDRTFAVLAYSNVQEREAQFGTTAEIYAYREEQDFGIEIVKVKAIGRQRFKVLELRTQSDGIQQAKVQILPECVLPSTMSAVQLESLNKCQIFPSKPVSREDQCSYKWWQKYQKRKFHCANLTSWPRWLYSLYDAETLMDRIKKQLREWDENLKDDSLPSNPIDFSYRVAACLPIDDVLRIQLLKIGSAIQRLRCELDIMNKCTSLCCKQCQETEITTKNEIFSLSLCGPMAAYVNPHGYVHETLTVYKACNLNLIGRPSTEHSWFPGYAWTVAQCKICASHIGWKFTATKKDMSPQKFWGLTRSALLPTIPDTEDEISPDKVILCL
T2 sequence (Q16531 whole entry partner): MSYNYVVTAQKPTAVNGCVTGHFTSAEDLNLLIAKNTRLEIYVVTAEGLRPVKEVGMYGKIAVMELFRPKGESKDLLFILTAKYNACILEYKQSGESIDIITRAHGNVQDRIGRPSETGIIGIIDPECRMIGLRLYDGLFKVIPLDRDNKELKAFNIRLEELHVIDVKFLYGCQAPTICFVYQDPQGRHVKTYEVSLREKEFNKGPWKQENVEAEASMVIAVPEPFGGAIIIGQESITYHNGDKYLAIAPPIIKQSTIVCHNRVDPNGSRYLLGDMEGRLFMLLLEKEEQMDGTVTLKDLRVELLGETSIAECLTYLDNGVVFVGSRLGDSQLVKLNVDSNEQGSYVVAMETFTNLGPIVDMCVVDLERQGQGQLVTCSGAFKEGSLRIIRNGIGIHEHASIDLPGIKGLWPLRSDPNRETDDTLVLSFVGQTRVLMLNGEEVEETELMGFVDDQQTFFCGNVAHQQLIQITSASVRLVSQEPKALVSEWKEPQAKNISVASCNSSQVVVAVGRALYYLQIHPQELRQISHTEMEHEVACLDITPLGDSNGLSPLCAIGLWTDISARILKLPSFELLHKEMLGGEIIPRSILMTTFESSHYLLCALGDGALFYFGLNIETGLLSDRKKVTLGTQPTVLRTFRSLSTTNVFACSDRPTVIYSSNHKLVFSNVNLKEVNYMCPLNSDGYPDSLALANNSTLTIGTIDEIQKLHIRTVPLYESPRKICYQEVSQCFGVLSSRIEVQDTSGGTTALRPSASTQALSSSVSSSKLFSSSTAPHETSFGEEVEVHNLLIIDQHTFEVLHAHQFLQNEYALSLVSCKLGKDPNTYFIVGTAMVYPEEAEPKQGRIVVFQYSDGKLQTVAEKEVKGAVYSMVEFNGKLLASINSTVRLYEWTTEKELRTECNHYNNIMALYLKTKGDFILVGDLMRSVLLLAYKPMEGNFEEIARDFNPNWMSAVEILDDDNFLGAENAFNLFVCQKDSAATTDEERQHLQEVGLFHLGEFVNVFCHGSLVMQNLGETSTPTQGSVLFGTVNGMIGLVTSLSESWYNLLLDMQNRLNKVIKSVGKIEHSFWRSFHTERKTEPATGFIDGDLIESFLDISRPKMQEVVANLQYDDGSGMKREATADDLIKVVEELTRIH

Row | DC50 (IRAK4) [nM] | Dmax (IRAK4) [%] | Area under drug-time curve (0-inf) [1] [µM·h] | Peak concentration [1] [µM] | Time to peak concentration [1] [h] | DC50 (IKZF1) [nM] | Dmax (IKZF1) [%] | Structure (SMILES)
1 | 15.1 | 92 | 5.10 | 0.34 | 3.33 | – | – | CC(C)(O)c1cc2nc([C@H]3CC[C@H](CN4CCC(C(F)(F)C(=O)Nc5cccc6c5ccc5onc(C7CCC(=O)NC7=O)c56)CC4)CC3)sc2cc1NC(=O)c1cccc(C(F)(F)F)n1 (some centres unmarked) [Formate of WX019]
2 | 7.16 | 114 | – | – | – | 31.3 | 57.2 | CC(C)(O)c1cc2nc([C@H]3CC[C@H](CN4CCC(C(F)(F)C(=O)Nc5cccc6c(C7CCC(=O)NC7=O)noc56)CC4)CC3)sc2cc1NC(=O)c1cccc(C(F)(F)F)n1 (some centres unmarked) [Formate of WX023]
3 | 1.75 | 117 | – | – | – | 35.2 | 60.8 | O=C1CCC(c2noc3c(NC(=O)C(F)(F)C4CCN(C[C@H]5CC[C@H](n6cc(NC(=O)c7coc(-c8ccnc(NCC9CC9)c8)n7)c(C(F)F)n6)CC5)CC4)cccc23)C(=O)N1 (some centres unmarked) [Formate of WX024]
4 | 4.26 | 112 | – | – | – | 38.8 | 61.8 | CC(C)(O)c1cc2nc([C@H]3CC[C@H](CN4CCN(CC(=O)Nc5cccc6c(C7CCC(=O)NC7=O)noc56)CC4)CC3)sc2cc1NC(=O)c1cccc(C(F)(F)F)n1 (some centres unmarked) [Formate of WX029]
5 | – | – | – | – | – | 2.66 | 87.6 | CC(C)(O)c1cc2nc([C@H]3CC[C@H](CN4CC5(CC(CCNc6ccc7c(ccc8onc(C9CCC(=O)NC9=O)c87)c6)C5)C4)CC3)sc2cc1NC(=O)c1cccc(C(F)(F)F)n1 (some centres unmarked) [WX021]

Second part, the compound before the results:

Row | Structure (SMILES) | DC50 (IRAK4) [nM] | Dmax (IRAK4) [%] | Area under drug-time curve (0-inf) [1] [µM·h] | Peak concentration [1] [µM] | Time to peak concentration [1] [h] | DC50 (IKZF1) [nM] | Dmax (IKZF1) [%]
6 | O=C1CCC(c2coc3ccc(NC(=O)CN4CCN(C[C@H]5CC[C@H](n6cc(NC(=O)c7coc(-c8ccnc(NCC9CC9)c8)n7)c(C(F)F)n6)CC5)CC4)cc23)C(=O)N1 (some centres unmarked) [Hydrochloride of WX001] | 76.4 | 54.3 | – | – | – | – | –
7 | CN(CCCOCCCc1ccc2c(ccc3occ(C4CCC(=O)NC4=O)c32)c1)C[C@H]1CC[C@H](n2cc(NC(=O)c3coc(-c4ccnc(NCC5CC5)c4)n3)c(C(F)F)n2)CC1 (some centres unmarked) [Hydrochloride of WX008] | 122 | 82.2 | – | – | – | 4.66 | 81.4
8 | CN(CCCOCCCc1cccc2c1ccc1onc(C3CCC(=O)NC3=O)c12)CC1CCC(n2cc(NC(=O)c3coc(-c4ccnc(NCC5CC5)c4)n3)c(C(F)F)n2)CC1 (centres unmarked) [Hydrochloride of WX013] | 48.7 | 101 | – | – | – | – | –
9 | O=C1CCC(c2noc3ccc4cc(NC(=O)CN5CCN(CC6CCC(n7cc(NC(=O)c8coc(-c9ccnc(NCC%10CC%10)c9)n8)c(C(F)F)n7)CC6)CC5)ccc4c23)C(=O)N1 (centres unmarked) [Hydrochloride of WX015] | 47.1 | 100 | – | – | – | 7.7 | 81.8
10 | CN(CCCOCCCc1cccc2c1ccc1occ(C3CCC(=O)NC3=O)c12)CC1CCC(n2cc(NC(=O)c3coc(-c4ccnc(NCC5CC5)c4)n3)c(C(F)F)n2)CC1 (centres unmarked) [Trifluoroacetate of WX010] | 50.2 | 81.7 | – | – | – | – | –
11 | O=C1CCC(c2coc3ccc4cc(NC(=O)CN5CCN(C[C@H]6CC[C@H](n7cc(NC(=O)c8coc(-c9ccnc(NCC%10CC%10)c9)n8)c(C(F)F)n7)CC6)CC5)ccc4c23)C(=O)N1 (some centres unmarked) [WX007] | 35.1 | 97.4 | – | – | – | – | –
